Laboratory results published in ChEMBL document CHEMBL1132434, “Antitumor benzothiazoles. 8. Synthesis, metabolic formation, and biological properties of the C- and N-oxidation products of antitumor 2-(4-aminophenyl)benzothiazoles” (J Med Chem, 1999).

Key:
[1] = system: MDA-MB-435; assay: Growth inhibition of the […] Breast cancer cell line for 2-day in vitro assay.; format: functional; conditions: Homo sapiens, MDA-MB-435, 48 h
[2] = system: A498; assay: Growth inhibition of the A498 Renal cancer cell line for 2-day in vitro assay.; format: functional; conditions: Homo sapiens, A498, 48 h
[3] = system: BT-549; assay: Growth inhibition of the BT-549 Breast cancer cell line for 2-day in vitro assay.; format: functional; conditions: Homo sapiens, BT-549, 48 h
[4] = system: HOP-62; assay: Growth inhibition of the HOP-62 non-small cell lung cancer cell line for 2-day in vitro assay.; format: functional; conditions: Homo sapiens, HOP-62, 48 h
[5] = system: U-251; assay: Growth inhibition of the U251 CNS cancer cell line for 2-day in vitro assay.; format: functional; conditions: Homo sapiens, U-251, 48 h
[6] = system: OVCAR-5; assay: Growth inhibition of the OVCAR-5 Ovarian cancer cell line for 2-day in vitro assay.; format: functional; conditions: Homo sapiens, OVCAR-5, 48 h
[7] = system: Malme-3M; assay: Growth inhibition of the MALME-3M Melanoma cancer cell line for 2-day in vitro assay.; format: functional; conditions: Homo sapiens, 48 h
[8] = system: EKVX; assay: Growth inhibition of the EKVX non-small cell lung cancer cell line for 2-day in vitro assay.; format: functional; conditions: Homo sapiens, 48 h
[9] = system: SN12C; assay: Growth inhibition of the SN12C Renal cancer cell line for 2-day in vitro assay.; format: functional; conditions: Homo sapiens, 48 h
[10] = system: LOX IMVI; assay: Growth inhibition of the LOX IMVI Melanoma cancer cell line for 2-day in vitro assay.; format: functional; conditions: Homo sapiens, 48 h
[11] = system: PC-3; assay: Growth inhibition of the PC-3 Prostate cancer cell line for 2-day in vitro assay.; format: functional; conditions: Homo sapiens, PC-3, 48 h
[12] = system: Hs-578T; assay: Growth inhibition of the Hs 578.T Breast cancer cell line for 2-day in vitro assay.; format: functional; conditions: Homo sapiens, 48 h
[13] = system: HCT-15; assay: Growth inhibition of the HCT-15 colon cancer cell line for 2-day in vitro assay.; format: functional; conditions: Homo sapiens, HCT-15, 48 h
[14] = system: MOLT-4; assay: Growth inhibition of the MOLT-4 leukemia cell line for 2-day in vitro assay.; format: functional; conditions: Homo sapiens, MOLT-4, 48 h
[15] = system: OVCAR-4; assay: Growth inhibition of the OVCAR-4 Ovarian cancer cell line for 2-day in vitro assay.; format: functional; conditions: Homo sapiens, OVCAR-4, 48 h
[16] = system: UACC-257; assay: Growth inhibition of the UACC-257 Melanoma cancer cell line for 2-day in vitro assay.; format: functional; conditions: Homo sapiens, UACC-257, 48 h
[17] = system: NCI-H23; assay: Growth inhibition of the NCI-H23 non-small cell lung cancer cell line for 2-day in vitro assay.; format: functional; conditions: Homo sapiens, NCI-H23, 48 h
[18] = system: SK-OV-3; assay: Growth inhibition of the SK-OV-3 Ovarian cancer cell line for 2-day in vitro assay.; format: functional; conditions: Homo sapiens, SK-OV-3, 48 h
[19] = system: MCF7; assay: Growth inhibition of the MCF-7 Breast cancer cell line for 2-day in vitro assay.; format: functional; conditions: Homo sapiens, MCF7, 48 h
[20] = system: SF-268; assay: Growth inhibition of the SF-268 CNS cancer cell line for 2-day in vitro assay.; format: functional; conditions: Homo sapiens, SF-268, 48 h
[21] = system: K562; assay: Growth inhibition of the K-562 leukemia cell line for 2-day in vitro assay.; format: functional; conditions: Homo sapiens, K562, 48 h
[22] = system: OVCAR-3; assay: Growth inhibition of the OVCAR-3 Ovarian cancer cell line for 2-day in vitro assay.; format: functional; conditions: Homo sapiens, OVCAR-3, 48 h
[23] = system: MDA-MB-231; assay: Growth inhibition of the […] Breast cancer cell line for 2-day in vitro assay.; format: functional; conditions: Homo sapiens, MDA-MB-231, 48 h
[24] = system: M14; assay: Growth inhibition of the M14 Melanoma cancer cell line for 2-day in vitro assay.; format: functional; conditions: Homo sapiens, M14, 48 h
[25] = system: ACHN; assay: Growth inhibition of the ACHN Renal cancer cell line for 2-day in vitro assay.; format: functional; conditions: Homo sapiens, 48 h
[26] = system: COLO 205; assay: Growth inhibition of the COLO-205 colon cancer cell line for 2-day in vitro assay.; format: functional; conditions: Homo sapiens, COLO 205, 48 h
[27] = system: 786-0; assay: Growth inhibition of the 786-O Renal cancer cell line for 2-day in vitro assay.; format: functional; conditions: Homo sapiens, 786-0, 48 h
[28] = system: HCT-116; assay: Growth inhibition of the HCT116 colon cancer cell line for 2-day in vitro assay.; format: functional; conditions: Homo sapiens, HCT-116, 48 h
[29] = system: NCI-H522; assay: Growth inhibition of the NCI-H522 non-small cell lung cancer cell line for 2-day in vitro assay.; format: functional; conditions: Homo sapiens, NCI-H522, 48 h
[30] = system: UO-31; assay: Growth inhibition of the UO-31 Renal cancer cell line for 2-day in vitro assay.; format: functional; conditions: Homo sapiens, UO-31, 48 h
[31] = system: SNB-75; assay: Growth inhibition of the SNB-75 CNS cancer cell line for 2-day in vitro assay.; format: functional; conditions: Homo sapiens, SNB-75, 48 h
[32] = system: NCI/ADR-RES; assay: Growth inhibition of the NCI/ADR-RES Breast cancer cell line for 2-day in vitro assay.; format: functional; conditions: Homo sapiens, 48 h
[33] = system: SK-MEL-5; assay: Growth inhibition of the SK-MEL-5 Melanoma cancer cell line for 2-day in vitro assay.; format: functional; conditions: Homo sapiens, SK-MEL-5, 48 h
[34] = system: SNB-19; assay: Growth inhibition of the SNB19 CNS cancer cell line for 2-day in vitro assay.; format: functional; conditions: Homo sapiens, SNB-19, 48 h
[35] = system: T47D; assay: Growth inhibition of the T-47D Breast cancer cell line for 2-day in vitro assay.; format: functional; conditions: Homo sapiens, 48 h
[36] = system: A549; assay: Growth inhibition of the A549/ATCC non-small cell lung cancer cell line for 2-day in vitro assay.; format: functional; conditions: Homo sapiens, A549, 48 h
[37] = system: NCI-H226; assay: Growth inhibition of the NCI-H226 non-small cell lung cancer cell line for 2-day in vitro assay.; format: functional; conditions: Homo sapiens, NCI-H226, 48 h
[38] = system: SK-MEL-2; assay: Growth inhibition of the SK-MEL-2 Melanoma cancer cell line for 2-day in vitro assay.; format: functional; conditions: Homo sapiens, SK-MEL-2, 48 h
[39] = system: OVCAR-8; assay: Growth inhibition of the OVCAR-8 Ovarian cancer cell line for 2-day in vitro assay.; format: functional; conditions: Homo sapiens, OVCAR-8, 48 h
[40] = system: UACC-62; assay: Growth inhibition of the UACC-62 Melanoma cancer cell line for 2-day in vitro assay.; format: functional; conditions: Homo sapiens, UACC-62, 48 h
[41] = system: TK-10; assay: Growth inhibition of the TK-10 Renal cancer cell line for 2-day in vitro assay.; format: functional; conditions: Homo sapiens, TK-10, 48 h
[42] = system: SW-620; assay: Growth inhibition of the SW-620 colon cancer cell line for 2-day in vitro assay.; format: functional; conditions: Homo sapiens, SW-620, 48 h
[43] = system: NCI-H460; assay: Growth inhibition of the NCI-H460 non-small cell lung cancer cell line for 2-day in vitro assay.; format: functional; conditions: Homo sapiens, NCI-H460, 48 h
[44] = system: CCRF-CEM; assay: Growth inhibition of the CCRF-CEM leukemia cell line for 2-day in vitro assay.; format: functional; conditions: Homo sapiens, 48 h
[45] = system: HT-29; assay: Growth inhibition of the HT-29 colon cancer cell line for 2-day in vitro assay.; format: functional; conditions: Homo sapiens, HT-29, 48 h
[46] = system: DU-145; assay: Growth inhibition of the DU-145 Prostate cancer cell line for 2-day in vitro assay.; format: functional; conditions: Homo sapiens, DU-145, 48 h
[47] = system: NCI-H322M; assay: Growth inhibition of the NCI-H322M non-small cell lung cancer cell line for 2-day in vitro assay.; format: functional; conditions: Homo sapiens, 48 h
[48] = system: RXF 393; assay: Growth inhibition of the RXF-393 Renal cancer cell line for 2-day in vitro assay.; format: functional; conditions: Homo sapiens, RXF 393, 48 h
[49] = system: HOP-92; assay: Growth inhibition of the HOP-92 non-small cell lung cancer cell line for 2-day in vitro assay.; format: functional; conditions: Homo sapiens, HOP-92, 48 h
[50] = system: HCC 2998; assay: Growth inhibition of the HCC2998 colon cancer cell line for 2-day in vitro assay.; format: functional; conditions: Homo sapiens, HCC 2998, 48 h
[51] = system: SF-295; assay: Growth inhibition of the SF-295 CNS cancer cell line for 2-day in vitro assay.; format: functional; conditions: Homo sapiens, SF-295, 48 h
[52] = system: SK-MEL-28; assay: Growth inhibition of the SK-MEL-28 Melanoma cancer cell line for 2-day in vitro assay.; format: functional; conditions: Homo sapiens, SK-MEL-28, 48 h
[53] = system: SR; assay: Growth inhibition of the SR leukemia cell line for 2-day in vitro assay.; format: functional; conditions: Homo sapiens, 48 h
[54] = system: KM12; assay: Growth inhibition of the KM12 colon cancer cell line for 2-day in vitro assay.; format: functional; conditions: Homo sapiens, KM12, 48 h
[55] = system: MCF7; assay: In vitro cytotoxicity against MCF-7 human mammary carcinoma cells; format: functional, cell-based

## Cc1cc(-c2nc3ccc(O)cc3s2)ccc1N
[1]
  GI50: 89.1 µM
[2]
  GI50: 41.7 µM
[3]
  GI50: 14.1 µM
[4]
  GI50: 30.9 µM
[5]
  GI50: 31.6 µM
[6]
  GI50: 83.2 µM
[7]
  GI50: 83.2 µM
[8]
  GI50: 4.07 µM
[9]
  GI50: 38.9 µM
[10]
  GI50: > 100 µM
[11]
  GI50: 50.1 µM
[12]
  GI50: 95.5 µM
[13]
  GI50: > 100 µM
[14]
  GI50: 26.9 µM
[15]
  GI50: 37.2 µM
[16]
  GI50: > 100 µM
[17]
  GI50: 12.6 µM
[18]
  GI50: 37.2 µM
[19]
  GI50: 56.2 µM
[20]
  GI50: 35.5 µM
[21]
  GI50: 36.3 µM
[22]
  GI50: 38.9 µM
[23]
  GI50: 44.7 µM
[24]
  GI50: 33.1 µM
[25]
  GI50: 53.7 µM
[26]
  GI50: > 100 µM
[27]
  GI50: 29.5 µM
[28]
  GI50: 43.7 µM
[29]
  GI50: 30.2 µM
[30]
  GI50: 21.4 µM
[31]
  GI50: 15.8 µM
[32]
  GI50: 91.2 µM
[33]
  GI50: 52.5 µM
[34]
  GI50: 45.7 µM
[35]
  GI50: 22.4 µM
[36]
  GI50: 34.7 µM
[37]
  GI50: 60.3 µM
[38]
  GI50: > 100 µM
[39]
  GI50: > 100 µM
[40]
  GI50: 57.5 µM
[41]
  GI50: 77.6 µM
[42]
  GI50: 66.1 µM
[43]
  GI50: 38.9 µM
[44]
  GI50: 0.794 µM
[45]
  GI50: 37.2 µM
[46]
  GI50: 33.9 µM
[47]
  GI50: 39.8 µM
[48]
  GI50: 30.2 µM
[49]
  GI50: > 100 µM
[50]
  GI50: > 100 µM
[51]
  GI50: 31.6 µM
[52]
  GI50: 64.6 µM
[53]
  GI50: 21.9 µM
[54]
  GI50: 57.5 µM
[55]
  IC50: < 0.001 µM
